Entries after “also recorded” stand apart in the source; their conditions may differ.
Experiments:
human melanoma C32 cells = experiment: MTT assay in C32 cells; format: cell-based; conditions: 48 h
Text: (§1) An in vitro cancer cell two-dimensional culture model was used for this study using 3-(4,5-dimethylthiazole-2-yl)-2,5-diphenyltetrazolium bromide (MTT) assay.[19]
(§2) The cell viability of PPPs was investigated using 3-(4,5-dimethylthiazole-2-yl)-2,5-diphenyltetrazolium bromide (MTT) reduction assay in the presence of 10% fetal bovine serum in antibiotic free media. The yellow tetrazolium salt (MTT) is modified by mitochondrial dehydrogenases to its purple formazan derivative (MTT-formazan) with maximum absorbance at 560–570 nm. […] Experiment was performed in 96-well plates (Cellstar, Germany) growing 10 000 cells (MCF-7, MDA-MB231, and MCF-10A) per well for 24 h before treatments. Experiments were performed for various concentrations of PPPs ranging from 10^5 to 10^0 nM and compared with Taxol as positive control ranging from 10^2 to 10^–3 nM, as described in particular experiment. Cells were incubated for 48 h before performing the MTT assay. At the end of the incubation period, cells were treated with MTT (20 μL, 5 mg/mL) per well and further incubated for 4 h. At the end of the incubation, the entire medium was removed from the wells and 200 μL of dimethyl sulfoxide (DMSO) was added to dissolve blue-colored formazan crystals produced by mitochondrial respirations. The percentage cell viability was obtained by calculating absorbance values and calculated using the formula %viability = {[A630(treated cells) – (background)]/[A630(untreated cells) – background]} × 100.

MDA-MB231 cells = experiment: MTT assay in MDA-MB231 cells; format: cell-based
Text: as §1, §2

MCF-7 cells [1] = experiment: MTT assay in MCF-7 cells; format: cell-based; conditions: for IC50: MCF-7, MTT; for viability at 10 µM: read-out: viable cells
Text: as §1, §2

MCF-10A cells = experiment: MTT assay in noncancerous MCF-10A cells; format: cell-based, human; conditions: 10 μM, 48 h
Protocol: Effectivity of anticancer drugs not only depends on cancer inhibition property but minimum effect to noncancerous normal cells. A representative study was performed on MCF-10A cells of noncancerous nature and human breast origin. […] It indicates the selectivity of PPPs toward cancer cells, presumably due to higher variation in tubulin polymerization processes.
as §2

MCF-7 cells [2] = experiment: Cell growth density study (bright field images); format: cell-based; conditions: MCF-7, 1 μM
tubulin [3] = experiment: In vitro microtubule polymerization assay (fluorescence); format: biochemical; set-up: dose or concentration left out as unconfirmed; conditions: 37 °C, 1.5 h, λex 350 nm, 430 nm
Protocol: To gather further insight into the molecular mechanism of action of PPPs, an in vitro cytoskeleton assay was carried out to investigate the effect of these agents on microtubule polymerization (Figure 1). In this protocol, 85 μL of 10 mg/mL tubulin stock was incubated with tubulin glycerol buffer for 1.5 h at 37 °C in the presence of various PPPs at a fixed concentration (20 mM). Following this, the degree of tubulin polymerization was evaluated by observing their fluorescence profile with time.
The content of polymerized microtubules was monitored by measuring fluorescence intensity at 430 nm (λex = 350 nm) every 7 s for 1.5 h. Paclitaxel (PTXL), a well-known microtubule stabilizer, was added to the assay as a positive control, whereas the tubulin glycerol buffer acted as a negative control. […] This implies that addition of PPP1–7 into the assay led to a stabilization of microtubule polymerization. […] Further inspection to correlate between the obtained trend in tubulin polymerization and modifications attempted at the N-1 and C-3 positions yielded interesting observations. […]
Unless otherwise mentioned, the reagents and chemicals were purchased from Sigma-Aldrich (St. Louis, MO) and used without any purification. […] High-resolution mass spectra (HRMS) were recorded on a quad time-of-flight electrospray ionization (ESI)-MS instrument.

tubulin [4] = experiment: SDS-PAGE of PPP-tubulin mixtures, band intensity of polymerized tubulin (FIJI); format: biochemical; conditions: Coomassie stain, among all PPP–tubulin mixtures
Protocol: With this promising result, we further focused on confirming the polymerization of microtubules. PPP–tubulin mixtures were collected from the abovementioned assay, and a sodium dodecyl sulfate polyacrylamide gel electrophoresis (SDS-PAGE) was performed to separate both tubulin as well as polymerized tubulin from the mixture. […] Two distinct bands were obtained, one in the region of 40–55 kDa, which is consistent with the molecular weight of α-, β-tubulin,[16] and other in the region of 130 kDa. This is presumably a result of tubulin polymerization. A semiquantitative analysis of the polymerized tubulin bands was performed using FIJI[17] to calculate the band intensities, as shown in Figure 2b. Fold change of band intensities was further calculated with respect to PPP5–tubulin mixture (Figure 2c).  Figure 2 (a) Coomassie-stained gel lanes for tubulin–dye mixtures, showing two migrating populations, polymerized tubulin (∼130 kDa MW), and α-, β-tubulin (∼50 kDa MW). A representative molecular weight standard lane is also shown across the sample lanes for comparison.

[5] = Homo sapiens, MCF7, MCF-7, 10 μM, 48 h

1-(Benzo[b]thiophen-2-yl)-3-methyl-5-(pyren-1-yl)-1H-pyrazole [PPP3]
IC50 (human melanoma C32 cells): > 100 µM
IC50 (MDA-MB231 cells; 48 h): > 100 µM
viable cells (MCF-7 cells [1]; MCF-7, 10 μM, 48 h): 52 ± 5%
IC50 (MCF-7 cells [1]; 48 h): > 100 µM

Cc1cc(-c2ccc3ccc4cccc5ccc2c3c45)n(-c2ccccc2)n1 [PPP1, 3-Methyl-1-phenyl-5-(pyren-1-yl)-1H-pyrazole]
IC50 (human melanoma C32 cells; Homo sapiens): > 100 µM
IC50 (MDA-MB231 cells; Homo sapiens, MDA-MB-231, 48 h): > 100 µM
cell death in noncancerous cells (MCF-10A cells): did not result in any significant cell death
viability at 10 µM (MCF-7 cells [1]; [5]): 50 ± 5%
IC50 (MCF-7 cells [1]; Homo sapiens, MCF7, 48 h): 60 ± 10 µM

Cc1cc(-c2ccc3ccc4cccc5ccc2c3c45)n(-c2ccc(-c3ccccc3)cc2)n1 [PPP2, 1-([1,1′-Biphenyl]-4-yl)-3-methyl-5-(pyren-1-yl)-1H-pyrazole]
IC50 (human melanoma C32 cells; Homo sapiens): > 100 µM
IC50 (MDA-MB231 cells; Homo sapiens, MDA-MB-231, 48 h): 15 ± 5 µM
viability at 10 µM (MCF-7 cells [1]; [5]): 45 ± 3%
IC50 (MCF-7 cells [1]; Homo sapiens, MCF7, 48 h): 34 ± 4 µM

c1ccc(-c2cc(-c3ccc4ccc5cccc6ccc3c4c56)n(-c3ccccc3)n2)cc1 [PPP4, 1,3-Diphenyl-5-(pyren-1-yl)-1H-pyrazole]
IC50 (human melanoma C32 cells; Homo sapiens): 5 ± 2 µM
IC50 (MDA-MB231 cells; Homo sapiens, MDA-MB-231, 48 h): 0.5 ± 0.2 µM
cell death in noncancerous cells (MCF-10A cells): did not result in any significant cell death
viability at 10 µM (MCF-7 cells [1]; [5]): 30 ± 3%
IC50 (MCF-7 cells [1]; Homo sapiens, MCF7, 48 h): 1 ± 0.5 µM
loss in cell growth density (MCF-7 cells [2]): maximum loss

c1ccc(-c2ccc(-n3nc(-c4ccccc4)cc3-c3ccc4ccc5cccc6ccc3c4c56)cc2)cc1 [PPP5, 1-([1,1′-Biphenyl]-4-yl)-3-phenyl-5-(pyren-1-yl)-1H-pyrazole]
IC50 (human melanoma C32 cells; Homo sapiens): > 100 µM
effect on microtubule polymerization (fluorescence intensity with time) (tubulin [3]): inhibits microtubule formation; also recorded: inhibition of microtubule polymerization
IC50 (MDA-MB231 cells; Homo sapiens, MDA-MB-231, 48 h): > 100 µM
band intensity of polymerized tubulin (∼130 kDa) (tubulin [4]): least
viability at 10 µM (MCF-7 cells [1]; [5]): 70 ± 10%
IC50 (MCF-7 cells [1]; Homo sapiens, MCF7, 48 h): > 100 µM

Cc1cc(-c2ccc3ccc4cccc5ccc2c3c45)[nH]n1 [PPP6, 3-Methyl-5-(pyren-1-yl)-1H-pyrazole]
IC50 (human melanoma C32 cells; Homo sapiens): > 100 µM
IC50 (MDA-MB231 cells; Homo sapiens, MDA-MB-231, 48 h): > 100 µM
viability at 10 µM (MCF-7 cells [1]; [5]): 55 ± 5%
IC50 (MCF-7 cells [1]; Homo sapiens, MCF7, 48 h): 43 ± 5 µM

O=C(O)c1cc(-c2ccc3ccc4cccc5ccc2c3c45)n(-c2ccccc2)n1 [PPP7, 1-Phenyl-5-(pyren-1-yl)-1H-pyrazole-3-carboxylic Acid]
IC50 (human melanoma C32 cells; Homo sapiens): 14 ± 2 µM
IC50 (MDA-MB231 cells; Homo sapiens, MDA-MB-231, 48 h): 10 ± 2 µM
cell death in noncancerous cells (MCF-10A cells): did not result in any significant cell death
viability at 10 µM (MCF-7 cells [1]; [5]): 50 ± 5%
IC50 (MCF-7 cells [1]; Homo sapiens, MCF7, 48 h): 8 ± 2 µM

CC(=O)O[C@H]1C(=O)[C@@]2(C)[C@H]([C@H](OC(=O)c3ccccc3)[C@]3(O)C[C@H](OC(=O)[C@H](O)[C@@H](NC(=O)c4ccccc4)c4ccccc4)C(C)=C1C3(C)C)[C@]1(OC(C)=O)CO[C@@H]1C[C@@H]2O [Taxol, Paclitaxel, reference compound]
effect on microtubule polymerization (fluorescence intensity with time) (tubulin [3]; listed as PTXL): increase in relative fluorescence intensity; also recorded: stabilizing the tubulin polymerization reaction
cell growth level (MCF-7 cells [1]; MCF-7, positive control, Figure 4b): 42 ± 10%

Source: publication PMC6130796, “Copper-Catalyzed Syntheses of Pyrene-Pyrazole Pharmacophores and Structure Activity Studies for Tubulin Polymerization” (ACS Omega, 2018)
